Data reported in article PMC11651915, “Small molecule protein assembly modulators with pan-cancer therapeutic efficacy” (Open Biology, 2024).
Structures can show the parent of a compound that is named as a salt.

Experiments:
NCI-60 cancer cell lines = conditions: for anti-cancer activity in NCI-60 single-dose testing: single dose 2.5 µM
A549 = experiment: In-house cancer cell viability screen (AlamarBlue); assay type: cell-based, human; conditions: for change of potency when compound is added at the time of plating rather than 24 h later: A549; for IC50: Homo sapiens, AlamarBlue
[1] = test system: A549 human lung cancer xenograft; experiment: A549 xenograft studies; conditions: for tumour growth inhibition (TGI): A549 xenograft, Gemcitabine 100 mg kg^−1 twice weekly
[2] = test system: HT-29 colorectal cancer xenograft; experiment: HT-29 xenograft study; assay type: in vivo, mouse; conditions: 17 days, PAV-951 3 mg kg^−1 IV, Irinotecan 60 mg kg^−1 IP
Experimental: In the second animal efficacy study, human HT-29 colorectal adenocarcinoma cells were grafted subcutaneously onto mice. After tumour establishment, the animals received treatment with vehicle, 3 mg kg^−1 PAV-951 or 60 mg kg^−1 of a positive control drug Irinotecan. […]. Survival was not assessed as part of the study.
HT-29 cells growing in HBSS medium were suspended in Matrigel. 0.1 ml of the cell suspension containing 5 × 10^6 cells were injected subcutaneously into the left flank region of male, 6–8 week old SCID mice. After tumour establishment, animals were divided randomly into groups of six and treated daily by IV with vehicle daily for 17 days, 3 mg kg^−1 PAV-951 three times per week for 17 days, or treated by IP with 60 mg kg^−1 Irinotecan every 4 days for 14 days. Tumour volume was calculated using the formula: (L × W2)/2 where L is the largest diameter and W is the smallest diameter of the tumour. Statistical analysis was performed using GraphPad Prism (Ver. 5.03). Statistical analysis of tumour growth inhibition between the Control and Treated groups was performed by using ne-way ANOVA followed by Dunnett’s test.

Mpox Zaire 79 = assay type: cell-based, Mpox virus; conditions: read-out: EC50 against Mpox
[3] = test system: BB1 patient biopsy derived cell line (benign adenoma); experiment: BB1 and BB5 adenoma versus carcinoma screen (confocal imaging); assay type: cell-based, human; conditions: 60 h, percent ChromaLive negative
Hennes 20 cells [4] = experiment: High density/low density 'arrest of proliferation' assay; assay type: cell-based, Chinese hamster; conditions: Hennes 20, 72 h, AlamarBlue
Hennes 20 cells [5] = experiment: Cell growth recovery assay; assay type: cell-based, Chinese hamster; conditions: PAV-617 0.3 µM 24 h, PAV-951 0.4 µM 6 h, followed to day 14
Experimental: To confirm that the inhibition observed in low-density Hennes 20 cells resulted from temporary arrest of proliferation and not cell death, compound was removed after a period of treatment and cell growth was measured over the subsequent two weeks for recovery potential. Once compound was removed, following a period of recovery, cell proliferation was restored over time for both chemotypes (see figure 1f,g). By day 11, cell density in compound-treated cells had caught up to that in the DMSO-treated cells (see figure 1f,g).
A 96-well plate was seeded with either Hennes 20 or LNCaP C-33 cells at 500 cells per well in 90 µl of minimum essential media and incubated at 37°C for 24 h. 0.5% DMSO was diluted in media and added to six control wells for each plate. PAV-617 was diluted in media and added to three wells at a concentration of 0.3 µM. PAV-951 was diluted in media and added to concentration of 0.4 µM. After 24 h of PAV-617 treatment or 6 h of PAV-951 treatment, the medium containing compound was removed and replaced with fresh media. After 72 h (day 5), plates were assayed with AlamarBlue and fluorescence was read at 530/590. The medium containing AlamarBlue was removed and replaced with fresh media. After another 72 h (day 8) plates were assayed with AlamarBlue and fluorescence again, then medium containing AlamarBlue was removed and replaced with fresh media. […]

LNCaP C-33 cells = experiment: Cell growth recovery assay; assay type: cell-based, human; conditions: PAV-617 0.3 µM 24 h, PAV-951 0.4 µM 6 h, followed
[6] = mouse MTD; cited from earlier work
A549 and MRC-5 cells = experiment: Toxicity to A549 cancer line versus non-cancer MRC-5 cells; assay type: cell-based
[7] = Mouse pharmacokinetics (plasma and lung); assay type: in vivo; conditions: PAV-621 5 mg kg^−1 IP versus PAV-951 2.5 mg kg^−1 IV
Experimental: Pharmacokinetic (PK) studies were conducted in male Sprague Dawley Rats aged 8–10 weeks or male CD1 mice aged 5–6 weeks or Balb/c nude mice. Treatment groups were made up of four animals each and dosing regimens for disclosed data is provided. Animals were sacrificed at the end of the study period using an overdose of CO2. PK studies were conducted at Vipragen Biosciences Private Limited or Pharmaron in accordance with the CPCSEA guidelines and ARRIVE guidelines.
CD1 or Balb/c nude mice aged 6–8 weeks were randomly divided into treatment groups with three animals per group. Animals in each treatment group were weighed and received either one […] intravenous dose of either vehicle (10% DMSO, 45% propylene glycol, 45% sterile water) or 2.5 mg kg^−1 PAV-951, or one intraperitoneal dose of either vehicle ([…] 10% DMSO, 45% propylene glycol, 45% sterile water) or 5 mg kg^−1 PAV-621. Animals were sacrificed after 1 h, 4 h, 8 h, 24 h post-dosing. Concentration of drug in the plasma and lung over time was measured using a Waters Acquity TQD LCMS/MS. Maximum concentration (Cmax) was determined to be the maximum concentration detected in a dataset. Half life, area under the curve and mean residence time were calculated with Phoenix WinNolin software.

in vivo = conditions: female, Balb/c, mouse, ip
[8] = PAV-617 study, 28 days, IP, PAV-617 10 mg kg^−1 once daily

c1ccc(CCNc2ncnc3cc(N4CCN(c5ccc6c(NCCc7ccccc7)ncnc6c5)CC4)ccc23)cc1 [PAV-436]
anti-cancer activity in NCI-60 single-dose testing (NCI-60 cancer cell lines): lost all anti-cancer activity on all cell lines examined

Nc1ccn([C@@H]2O[C@H](CO)[C@@H](O)C2(F)F)c(=O)n1 [Gemcitabine, Gemcitabine hydrochloride, reference compound]
change of potency when compound is added at the time of plating rather than 24 h later (A549): did not significantly affect | IC50 (A549; A549 (treatment 0 h after plating)): 3.01 µM | IC50 (A549; A549 (treatment 24 h after plating), 72 h): 3.92 µM | tumour growth inhibition (TGI) [1, 8]: 64% | tumour growth inhibition (TGI) ([1]; PAV-951 study, 14 days, IV, PAV-951 1.5 mg kg^−1 once daily): 84%

CCc1c2c(nc3ccc(OC(=O)N4CCC(N5CCCCC5)CC4)cc13)-c1cc3c(c(=O)n1C2)COC(=O)[C@]3(O)CC [Irinotecan, reference compound]
tumour growth inhibition (TGI) [2]: 108%

3,7-Di(pyrrolidin-1-yl) phenothiazinium iodide [PAV-617]
EC50 (Mpox Zaire 79): 0.201 µM | IC50 [3]: 0.81 µM | inhibitory effect at low (500 cells per well) versus high (15 000 cells per well) density (Hennes 20 cells [4]): difference between their inhibitory effects on low and high density-plated Hennes 20 cells | recovery of cell growth after removal of compound (Hennes 20 cells [5]): recovered over time | recovery of cell growth after removal of compound (LNCaP C-33 cells): did not recover | dose inhibiting growth relative to vehicle-treated cells (GI50) (NCI-60 cancer cell lines; for more than 40 cell lines): 2–3 digit nanomolar range | CC50 (NCI-60 cancer cell lines; read-out: dose required to decrease cell viability below that at the time compound was added (LC50), for at least 40 cell lines): > 100 µM | tumour growth inhibition (TGI) [1, 8]: 63% | adverse effects at the doses of the xenograft studies ([1]; clinical signs, weight loss, histopathological changes, blood cell count): without any serious adverse effects

CCC1=C[C@@H]2CN(C1)Cc1c([nH]c3ccccc13)[C@@](C(=O)OC)(c1cc3c(cc1OC)N(C)[C@H]1[C@@](O)(C(=O)OC)[C@H](OC(C)=O)[C@]4(CC)C=CCN5CC[C@]31[C@@H]54)C2 [Vinorelbine]
MTD [6]: 10 mg/kg

CCCCNc1ncnc2cc(N3CCN(c4ccc5c(NCCCC)ncnc5c4)CC3)ccc12 [PAV-621]
change of potency when compound is added at the time of plating rather than 24 h later (A549): increased potency | toxicity to A549 cancer line compared with non-cancer MRC-5 cells (A549 and MRC-5 cells): selectively toxic to the A549 cancer line | exposure in the lung [7]: comparable exposure with PAV-951 | anti-cancer activity in NCI-60 single-dose testing (NCI-60 cancer cell lines): improvements relative to PAV-951 | MTD at 72 h (in vivo): 7.5 mg/kg

cisplatin
MTD [6]: 6 mg/kg
